Key:
KAT-6A = KAT-6A (Homo sapiens (Human), UniProt Q92794); experiment: KAT-6A biochemical inhibition assay (SAMDI mass spectrometry)
Procedure, shortened: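 IC50 values came from SAMDI time-of-flight mass spectrometry after formic acid quench (0.5% final). Acetylation ran 90 min at 25 °C with 1 μM acetyl coenzyme A and 1 μM peptide substrate, following compound pre-incubation with 12.5 nM KAT-6A in Tris buffer pH 8.0 containing DTT, 2% DMSO final.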

KAT-8 = KAT-8 (Homo sapiens (Human), UniProt Q9H7Z6); experiment: KAT-8 biochemical inhibition assay (SAMDI mass spectrometry)
Procedure, shortened: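 Acetylation of 1 μM peptide substrate with 5 μM acetyl-CoA by 12.5 nM enzyme, compound pre-incubated, 2% DMSO, Tris pH 8.0 buffer with DTT, 25 °C for 90 min. Quench with 0.5% formic acid; product read by SAMDI mass spectrometry to give IC50.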

KAT-5 = KAT-5 (Homo sapiens (Human), UniProt Q92993); experiment: KAT-5 biochemical inhibition assay (SAMDI mass spectrometry)
Procedure, shortened: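 Acetylation of 1 μM peptide by 9 nM enzyme with 0.5 μM acetyl-CoA (final) was run 90 min at 25° C in Tris pH 8.0 buffer with DTT, after compound preincubation at 2% DMSO. Formic acid stopped the reaction, and product was quantified by SAMDI mass spectrometry to derive IC50.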

KAT-7 = KAT-7 (Homo sapiens (Human), UniProt O95251); experiment: KAT-7 biochemical inhibition assay (SAMDI mass spectrometry)
Procedure, shortened: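 Read-out was SAMDI time-of-flight MS of formic acid-quenched reactions (0.5% final). Compound dilutions (2% DMSO final) were pre-incubated with 6 nM KAT-7 in 50 mM Tris pH 8.0 with 1 mM DTT, then given 1 μM peptide substrate and 2 μM acetyl-CoA for 120 min at 25 °C. IC50 values were derived.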

Sequence of KAT-5 (Q92993 other isoform, or with tags, fused parts or gaps): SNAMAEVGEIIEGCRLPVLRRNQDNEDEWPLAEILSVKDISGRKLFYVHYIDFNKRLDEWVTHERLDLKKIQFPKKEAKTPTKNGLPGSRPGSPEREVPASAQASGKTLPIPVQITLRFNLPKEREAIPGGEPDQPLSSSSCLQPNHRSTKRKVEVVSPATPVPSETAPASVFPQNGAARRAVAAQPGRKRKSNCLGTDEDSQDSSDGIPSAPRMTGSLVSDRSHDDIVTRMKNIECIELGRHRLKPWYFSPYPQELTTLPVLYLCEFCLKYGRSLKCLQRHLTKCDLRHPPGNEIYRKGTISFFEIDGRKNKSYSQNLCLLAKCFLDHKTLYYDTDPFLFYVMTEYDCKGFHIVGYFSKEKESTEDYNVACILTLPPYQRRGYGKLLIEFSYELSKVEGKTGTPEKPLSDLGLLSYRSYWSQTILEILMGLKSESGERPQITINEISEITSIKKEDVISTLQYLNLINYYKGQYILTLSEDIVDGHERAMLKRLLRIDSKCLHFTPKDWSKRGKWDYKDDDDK
Sequence of KAT-8 (Q9H7Z6 other isoform, or with tags, fused parts or gaps): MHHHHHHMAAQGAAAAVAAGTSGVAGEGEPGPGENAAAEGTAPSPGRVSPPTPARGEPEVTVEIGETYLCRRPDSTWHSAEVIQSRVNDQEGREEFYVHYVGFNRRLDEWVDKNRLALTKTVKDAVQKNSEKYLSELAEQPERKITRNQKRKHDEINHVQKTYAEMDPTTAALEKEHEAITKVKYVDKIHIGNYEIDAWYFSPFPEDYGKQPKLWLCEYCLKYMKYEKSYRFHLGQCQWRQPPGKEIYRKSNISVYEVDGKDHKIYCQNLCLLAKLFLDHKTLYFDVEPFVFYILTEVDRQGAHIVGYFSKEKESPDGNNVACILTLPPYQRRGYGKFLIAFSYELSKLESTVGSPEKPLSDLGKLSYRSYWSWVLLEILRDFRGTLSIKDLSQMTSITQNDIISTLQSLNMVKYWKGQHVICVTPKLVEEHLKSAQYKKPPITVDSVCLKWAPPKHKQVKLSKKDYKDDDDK
Sequence of KAT-7 (O95251 other isoform, or with tags, fused parts or gaps): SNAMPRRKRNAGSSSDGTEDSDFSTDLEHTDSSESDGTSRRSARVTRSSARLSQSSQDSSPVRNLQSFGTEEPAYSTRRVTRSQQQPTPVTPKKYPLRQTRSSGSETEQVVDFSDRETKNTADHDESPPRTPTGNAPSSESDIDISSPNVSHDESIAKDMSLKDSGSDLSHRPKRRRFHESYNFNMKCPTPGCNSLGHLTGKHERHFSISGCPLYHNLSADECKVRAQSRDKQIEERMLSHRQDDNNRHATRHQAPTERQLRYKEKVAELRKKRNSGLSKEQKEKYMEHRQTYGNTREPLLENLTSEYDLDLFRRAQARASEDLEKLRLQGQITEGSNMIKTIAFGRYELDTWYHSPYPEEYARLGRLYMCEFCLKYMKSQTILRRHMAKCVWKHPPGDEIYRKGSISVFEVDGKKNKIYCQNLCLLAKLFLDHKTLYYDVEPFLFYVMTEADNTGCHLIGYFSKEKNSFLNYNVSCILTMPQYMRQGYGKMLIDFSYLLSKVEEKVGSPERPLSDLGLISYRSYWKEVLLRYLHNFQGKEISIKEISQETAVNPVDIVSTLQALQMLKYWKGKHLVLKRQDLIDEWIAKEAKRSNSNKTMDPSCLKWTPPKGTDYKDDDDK
Sequence of KAT-6A (Q92794 other isoform, or with tags, fused parts or gaps): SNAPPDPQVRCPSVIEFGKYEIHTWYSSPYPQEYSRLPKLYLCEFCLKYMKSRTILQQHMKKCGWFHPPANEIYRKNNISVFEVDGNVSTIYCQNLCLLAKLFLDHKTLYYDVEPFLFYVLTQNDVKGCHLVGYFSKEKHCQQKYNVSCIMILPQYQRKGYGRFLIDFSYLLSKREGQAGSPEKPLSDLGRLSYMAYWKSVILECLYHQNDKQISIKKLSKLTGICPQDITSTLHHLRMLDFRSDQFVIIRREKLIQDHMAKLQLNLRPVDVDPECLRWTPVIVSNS

Structure (SMILES)	IC50 (KAT-6A) [µM]	IC50 (KAT-8) [µM]	IC50 (KAT-5) [µM]	IC50 (KAT-7) [µM]
COCCOc1ccc(S(=O)(=O)NNC(=O)c2cc(-c3cn(C)cn3)cc(Cl)c2F)cc1 [Compound I-369]	10 to 50	10 to 50	< 10	< 10
Cn1cnc(-c2cc(Cl)c(F)c(C(=O)NNS(=O)(=O)c3cn(C)cn3)c2)c1 [Compound I-237]	< 10	10 to 50	10 to 50	< 10
Cn1cnc(-c2cc(Cl)c(F)c(C(=O)NNS(=O)(=O)CC3CCCC(NC(=O)Cc4ccncc4)C3)c2)c1 (stereo not drawn) [Compound I-247]	< 10	10 to 50	< 10	< 10
CN(C(=O)OC(C)(C)C)c1cccc(S(=O)(=O)NNC(=O)c2cc(-c3cn(C)cn3)cc(Cl)c2F)c1 [Compound I-343]	< 10	10 to 50	< 10	< 10
Cn1cnc(-c2cc(Cl)c(F)c(C(=O)NNS(=O)(=O)C[C@@H]3CCC[C@@H](NC(=O)OC(C)(C)C)C3)c2)c1 [Compound I-333]	< 10	10 to 50	< 10	< 10
CNC1CCC(CS(=O)(=O)NNC(=O)c2cc(-c3cn(C)cn3)cc(Cl)c2F)CC1 (stereo not drawn) [Compound I-297]	10 to 50	10 to 50	10 to 50	< 10
Cn1cnc(-c2cc(Cl)c(F)c(C(=O)NNS(=O)(=O)C[C@H]3CCC[C@H](O)C3)c2)c1 [Compound I-306]	< 10	10 to 50	< 10	< 10
COCCNC(=O)N1CCC(CS(=O)(=O)NNC(=O)c2cc(-c3cn(C)cn3)cc(Cl)c2F)C1 (stereo not drawn) [Compound I-190]	< 10	10 to 50	< 10	< 10
Cn1cnc(-c2cc(Cl)c(F)c(C(=O)NNS(=O)(=O)c3cnn(CCOCc4ccccc4)c3)c2)c1 [Compound I-361]	10 to 50	10 to 50	10 to 50	< 10
CC(=O)N1C[C@H](CS(=O)(=O)NNC(=O)c2cc(-c3cn(C)cn3)cc(Cl)c2F)[C@@H](C)C1 [Compound I-283]	10 to 50	10 to 50	10 to 50	< 10
Cn1cnc(-c2cc(Cl)c(F)c(C(=O)NNS(=O)(=O)CC3CCc4ccccc4C3)c2)c1 (stereo not drawn) [Compound I-383]	< 10	10 to 50	< 10	< 10
Cn1c(Cl)nc(-c2cc(Cl)c(F)c(C(=O)NNS(=O)(=O)C3CCOCC3)c2)c1Cl [Compound I-11]	10 to 50	> 100	50 to 100	50 to 100
Cn1cc(-c2cc(Cl)c(F)c(C(=O)NNS(=O)(=O)CC3CCOCC3)c2)nn1 [Compound I-67]	10 to 50	> 100	10 to 50	10 to 50
CN(C)C(=O)N(C)C1CCCC(CS(=O)(=O)NNC(=O)c2cc(-c3cn(C)cn3)cc(Cl)c2F)C1 (stereo not drawn) [Compound I-292]	< 10	10 to 50	< 10	< 10
Cn1cnc(-c2cc(Cl)c(F)c(C(=O)NNS(=O)(=O)CC3CCCc4ccccc43)c2)c1 (stereo not drawn) [Compound I-264]	< 10	10 to 50	< 10	< 10
Cn1cnc(-c2cc(Cl)c(F)c(C(=O)NNS(=O)(=O)C[C@H]3C[C@H](N)C3)c2)c1 [Compound I-123]	10 to 50	10 to 50	10 to 50	< 10
Cn1cnc(-c2cc(Cl)c(F)c(C(=O)NNS(=O)(=O)C[C@H]3CC[C@@H](NS(C)(=O)=O)CC3)c2)c1 [Compound I-248]	< 10	10 to 50	< 10	< 10
Cn1cnc(-c2cc(Cl)c(F)c(C(=O)NNS(=O)(=O)CC3CCCN(C(N)=O)C3)c2)c1 (stereo not drawn) [Compound I-215]	< 10	10 to 50	< 10	< 10
CCNC(=O)N1[C@H]2CC[C@H](CS(=O)(=O)NNC(=O)c3cc(-c4cn(C)cn4)cc(Cl)c3F)[C@@H]1CC2 [Compound I-265]	< 10	10 to 50	< 10	< 10

Results, then the molecule that gave them:

IC50 (KAT-6A) [µM]	IC50 (KAT-8) [µM]	IC50 (KAT-5) [µM]	IC50 (KAT-7) [µM]	Structure (SMILES)
> 100	> 100	10 to 50	> 100	COCCn1cc(-c2cc(C)c(F)c(C(=O)NNS(=O)(=O)C3CCCCC3)c2)cn1 [Compound I-152]
< 10	> 100	10 to 50	< 10	Cc1cnn(-c2cc(Cl)c(F)c(C(=O)NNS(=O)(=O)CC3CCOCC3)c2)c1 [Compound I-36]
< 10	10 to 50	< 10	< 10	CCC(=O)N[C@H]1CC[C@H](CS(=O)(=O)NNC(=O)c2cc(-c3cn(C)cn3)cc(Cl)c2F)CC1 [Compound I-195]
< 10	> 100	< 10	10 to 50	Cc1cn(-c2cc(Cl)c(F)c(C(=O)NNS(=O)(=O)CC3CCOCC3)c2)nn1 [Compound I-50]
> 100	> 100	> 100	10 to 50	Cc1cc(-c2cn(C)cn2)cc(C(=O)NNS(=O)(=O)CC2CCCCC2)c1C [Compound I-145]
< 10	10 to 50	< 10	< 10	Cn1cnc(-c2cc(Cl)c(F)c(C(=O)NNS(=O)(=O)c3cscn3)c2)c1 [Compound I-304]
< 10	10 to 50	< 10	< 10	CN1CCN([C@H]2C[C@H](CS(=O)(=O)NNC(=O)c3cc(-c4cn(C)cn4)cc(Cl)c3F)C2)C1=O [Compound I-312]
< 10	10 to 50	< 10	< 10	CN(C)C(=O)N(C)[C@H]1CC[C@H](CS(=O)(=O)NNC(=O)c2cc(-c3cn(C)cn3)cc(Cl)c2F)CC1 [Compound I-366]
< 10	< 10	< 10	< 10	COc1ccc(CNC(=O)NC2CCC(CS(=O)(=O)NNC(=O)c3cc(-c4cn(C)cn4)cc(Cl)c3F)CC2)cc1 (stereo not drawn) [Compound I-177]
< 10	10 to 50	< 10	< 10	Cn1cnc(-c2cc(Cl)c(F)c(C(=O)NNS(=O)(=O)CC3CCCC(NC(=O)c4ccncc4)C3)c2)c1 (stereo not drawn) [Compound I-238]
< 10	10 to 50	< 10	< 10	CN1CCN(C2CCCC(CS(=O)(=O)NNC(=O)c3cc(-c4cn(C)cn4)cc(Cl)c3F)C2)C1=O (stereo not drawn) [Compound I-281]
< 10	> 100	< 10	< 10	O=C(NNS(=O)(=O)CC1CCOCC1)c1cc(-c2cscn2)cc(Cl)c1F [Compound I-48]
> 100	> 100	50 to 100	10 to 50	CCCn1cc(-c2cc(C)c(F)c(C(=O)NNS(=O)(=O)C3CCCCC3)c2)cn1 [Compound I-151]
10 to 50	10 to 50	10 to 50	< 10	CNC(=O)N[C@H]1C[C@H](CS(=O)(=O)NNC(=O)c2cc(-c3cn(C)cn3)cc(Cl)c2F)C1 [Compound I-188]

Source: US11685732B2, “MYST family histone acetyltransferase inhibitors” (Epizyme, Inc., priority 2017, dated 2023)
